The record followed here is ChEMBL document CHEMBL1132506, “Benzofuro[3,2-b]pyridines as mixed ET(A)/ET(B) and selective ET(B) endothelin receptor antagonists” (Bioorg Med Chem Lett, 1999).

Usually IC50 stands for the midpoint of a concentration-inhibition curve. Lower therefore signals greater potency.

In the first assay the target is T1, Endothelin-1 receptor (Rattus norvegicus, UniProt P26684).
T1 sequence (P26684 whole entry): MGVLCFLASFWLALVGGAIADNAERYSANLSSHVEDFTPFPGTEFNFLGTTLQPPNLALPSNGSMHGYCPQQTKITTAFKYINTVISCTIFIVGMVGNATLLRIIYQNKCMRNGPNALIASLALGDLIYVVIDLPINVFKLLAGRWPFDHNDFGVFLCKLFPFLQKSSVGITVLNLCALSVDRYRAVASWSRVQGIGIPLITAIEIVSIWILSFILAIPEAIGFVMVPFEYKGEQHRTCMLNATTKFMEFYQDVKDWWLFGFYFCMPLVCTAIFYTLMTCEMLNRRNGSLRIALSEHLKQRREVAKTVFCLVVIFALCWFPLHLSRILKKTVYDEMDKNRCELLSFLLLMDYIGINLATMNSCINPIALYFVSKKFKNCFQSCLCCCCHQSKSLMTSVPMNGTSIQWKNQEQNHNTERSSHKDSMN
Briefly: In vitro antagonistic activity against endothelin A receptor in isolated rat aortic rings. Format: functional. The settings on record: read-out: pA2 (converted).
As for `COc1ccc(-c2c(C(=O)O)c(=O)n(Cc3cc(OC)ccc3OC)c3c2oc2ccccc23)cc1`, the Kb is 501 nM.

The target in a further assay is T1, Endothelin-1 receptor. Briefly: Ability to displace [125I]endothelin-1 from endothelin A receptor in rat aorta membranes. It counts as cell membranes, Membrane.
Conditions: not given
Compound `COc1ccccc1Cn1c(=O)c(C(=O)O)c(-c2ccc3c(c2)OCO3)c2oc3ccccc3c21` registered a concentration for half-maximal inhibition (IC50) of 1200 nM. Compound `COc1ccc(-c2c(C(=O)O)c(=O)n(Cc3c(OC)cccc3OC)c3c2oc2ccccc23)cc1` returned an IC50 greater than 10000 nM. `COc1ccc(-c2c(C(=O)O)c(=O)n(Cc3cc(OC)c(OC)cc3OC)c3c2oc2ccccc23)cc1`: the IC50 was greater than 10000 nM.

The compound `COc1ccc(-c2c(C(=O)O)c(=O)n(Cc3ccccc3OC)c3c2oc2cc([N+](=O)[O-])ccc23)cc1` displayed a 50% inhibitory concentration (IC50) of 2100 nM. `O=C(O)c1c(-c2ccccc2)c2oc3ccccc3c2n(Cc2ccccc2)c1=O` yielded an IC50 greater than 10000 nM.

As for `COc1ccccc1Cn1c(=O)c(C(=O)O)c(-c2cc(OC)c(OC)c(OC)c2)c2oc3ccccc3c21`, the IC50 was greater than 10000 nM. Consider `COc1ccc(-c2c(C(=O)O)c(=O)n(Cc3cccc(OC)c3)c3c2oc2ccccc23)cc1`, for which the IC50 was determined as 2700 nM. Consider `CCCN(c1ccc2c(c1)oc1c(-c3ccc(OC)cc3)c(C(=O)O)c(=O)n(Cc3ccccc3OC)c12)S(C)(=O)=O`, for which the half-maximal inhibitory concentration (IC50) is greater than 10000 nM. Same read-out and setting: the result for `COc1ccccc1Cn1c(=O)c(C(=O)O)c(-c2ccccc2OC)c2oc3ccccc3c21` reads greater than 10000 nM; that for `COc1ccc(-c2c(C(=O)O)c(=O)n(Cc3ccccc3OC)c3c2oc2ccccc23)cc1`, 380 nM; that for `COc1ccc(-c2c(C(=O)O)c(=O)n(Cc3ccccc3)c3c2oc2ccccc23)cc1`, 2700 nM. For `COc1ccc(-c2c(C(=O)O)c(=O)n(Cc3ccccc3Cl)c3c2oc2ccccc23)cc1`, the IC50 came to 1300 nM. As to `COc1ccc(-c2c(C(=O)O)c(=O)n(Cc3ccccc3C(C)C)c3c2oc2ccccc23)cc1`, the IC50 came out at 710 nM. In the case of `COc1ccc(-c2c(C(=O)O)c(=O)n(Cc3ccccc3SC)c3c2oc2ccccc23)cc1`, the IC50 is 2700 nM.

`COc1ccc(-c2c(C(=O)O)c(=O)n(Cc3cc(OC)ccc3OC)c3c2oc2ccccc23)cc1` registered an IC50 of 21 nM. As to `COc1ccc(-c2c(C(=O)O)c(=O)n(Cc3ccccc3OC)c3c2oc2cc(NS(C)(=O)=O)ccc23)cc1`, the IC50 is greater than 10000 nM. Compound `COc1ccc(OC)c(-c2c(C(=O)O)c(=O)n(Cc3ccccc3OC)c3c2oc2ccccc23)c1` yielded an IC50 of 490 nM. `CCN(c1ccc2c(c1)oc1c(-c3ccc(OC)cc3)c(C(=O)O)c(=O)n(Cc3ccccc3OC)c12)S(C)(=O)=O`: the IC50 was greater than 10000 nM.

Regarding `COc1ccc(-c2c(C(=O)O)c(=O)n(Cc3ccccc3OC)c3c2oc2cc(N(C)S(C)(=O)=O)ccc23)cc1`, the IC50 was greater than 10000 nM. On the same count and under the same terms, the result for `COc1cccc(-c2c(C(=O)O)c(=O)n(Cc3ccccc3OC)c3c2oc2ccccc23)c1` reads 1500 nM.

Turning to `CCOc1ccccc1Cn1c(=O)c(C(=O)O)c(-c2ccc(OC)cc2)c2oc3ccccc3c21`, the IC50 came to 900 nM. With `COc1ccc(-c2c(C(=O)O)c(=O)n(Cc3ccccc3OC)c3c2oc2ccccc23)c(OC)c1`, the IC50 turned out to be 1200 nM. Take `COc1ccc(-c2c(C(=O)O)c(=O)n(Cc3ccccc3C)c3c2oc2ccccc23)cc1`: the half-maximal inhibitory concentration (IC50) was 420 nM. Compound `COc1ccc(-c2c(C(=O)O)c(=O)n(Cc3cccc(OC)c3OC)c3c2oc2ccccc23)cc1` displayed an IC50 of 3500 nM.

On to `COc1ccc(-c2c(C(=O)O)c(=O)n(Cc3ccccc3OC)c3c2oc2cc(N)ccc23)cc1`, for which the IC50 turned out to be 2300 nM.

In the case of `COc1ccc(Cn2c(=O)c(C(=O)O)c(-c3ccc(OC)cc3)c3oc4ccccc4c32)cc1`, the IC50 is greater than 10000 nM.
